From Sander's compilation of Henry's law constants (doi:10.1016/s0021-9673(98)00877-2)

Assay: Henry solubility constant Hcp at 298.15 K (mol/(m3 Pa))
Conditions: reference: Dewulf et al. (1999)

Row | SMILES | Henry solubility constant Hcp
1 | C1CCCCC1 [cyclohexane] | 5.2e-05
2 | ClC=C(Cl)Cl [trichloroethene] | 0.00095
3 | Cc1ccccc1 [methylbenzene] | 0.0015
4 | O=[N+]([O-])c1ccccc1 [nitrobenzene] | 0.023
5 | Clc1cc(Cl)cc(Cl)c1 [1,3,5-trichlorobenzene] | 0.0018
6 | Clc1cccc(Cl)c1Cl [1,2,3-trichlorobenzene] | 0.0036
7 | Fc1ccccc1 [fluorobenzene] | 0.0014
8 | ClC(Cl)=C(Cl)C(Cl)=C(Cl)Cl [hexachlorobutadiene] | 0.00062
9 | ClCC(Cl)Cl [1,1,2-trichloroethane] | 0.011
10 | c1ccc2ccccc2c1 [naphthalene] | 0.013
11 | C=C(Cl)Cl [1,1-dichloroethene] | 0.00037
12 | CC(Cl)CCl (centres undefined) [1,2-dichloropropane] | 0.0035
13 | Clc1ccccc1 [chlorobenzene] | 0.0025
14 | COc1ccccc1 [methoxybenzene] | 0.026
